Experimental data taken from patent US20240391928A1, “COMPOSITIONS FOR THE TREATMENT OF FOOD AND CHEMICAL ADDICTION AND METHODS OF MAKING AND USING SAME” (Duke University, priority 2021, published 2024).
“And” between values parts separate entries of the source, which are not always exact repeats. Equal values may be shown once.

Experiments:
GPCRome (320 receptors) = assay: PRESTO-Tango GPCRome β-arr2 recruitment screen, other receptors; format: cell-based; conditions: N8279 1 μM; hit >3-fold
Method: Hits were defined as >3-fold activation above baseline. […] The assay quality was assessed by plotting duplicate, independent trial averages (derived from 4 independent wells) for each receptor as a point (X,Y). The corresponding plot of points for an ideal assay were fit by a regression line with the slope=1.

mGHSR A199P = target: T1, mGHSR A199P (Mus musculus, UniProt Q99P50, A199P); assay: Gαq dissociation and β-arr2 recruitment at humanized mouse receptor; format: cell-based
T1 construct: expressed in transfected cells
T1 sequence (Q99P50 whole entry A199P): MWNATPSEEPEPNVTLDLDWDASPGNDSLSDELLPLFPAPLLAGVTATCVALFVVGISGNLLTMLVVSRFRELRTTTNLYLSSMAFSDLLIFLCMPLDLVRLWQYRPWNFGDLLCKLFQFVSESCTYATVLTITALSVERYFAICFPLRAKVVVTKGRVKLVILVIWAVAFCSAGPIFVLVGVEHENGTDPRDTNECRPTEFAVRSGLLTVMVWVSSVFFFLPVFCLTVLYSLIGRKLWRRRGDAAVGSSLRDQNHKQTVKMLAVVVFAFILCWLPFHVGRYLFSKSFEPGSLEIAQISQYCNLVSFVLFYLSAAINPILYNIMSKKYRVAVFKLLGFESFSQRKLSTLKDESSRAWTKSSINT
Method: To assess if N8279 signaling required receptor sites within and/or conformational states are conserved from the mouse receptor to the human receptor, the amino acid sequences for variations within the ECL2 were first determined (FIG. 17A). Mutations were made to human GHSR1a receptor (hGHSR) for W193R and P200A and to mouse GHSR1a receptor (mGHSR) for […]. N8279-stimulated Gαq dissociation (FIG. 17B) and β-arr2 recruitment (FIG. 17C) were evaluated for each hGHSR and mGHSR mutants in comparison to endogenous (WT) receptors.

hGHSR1a^WT [1] = target: T2, hGHSR1a^WT (Homo sapiens, UniProt Q92847); conditions: 100 nM, 45 minutes
T2 sequence (Q92847 whole entry): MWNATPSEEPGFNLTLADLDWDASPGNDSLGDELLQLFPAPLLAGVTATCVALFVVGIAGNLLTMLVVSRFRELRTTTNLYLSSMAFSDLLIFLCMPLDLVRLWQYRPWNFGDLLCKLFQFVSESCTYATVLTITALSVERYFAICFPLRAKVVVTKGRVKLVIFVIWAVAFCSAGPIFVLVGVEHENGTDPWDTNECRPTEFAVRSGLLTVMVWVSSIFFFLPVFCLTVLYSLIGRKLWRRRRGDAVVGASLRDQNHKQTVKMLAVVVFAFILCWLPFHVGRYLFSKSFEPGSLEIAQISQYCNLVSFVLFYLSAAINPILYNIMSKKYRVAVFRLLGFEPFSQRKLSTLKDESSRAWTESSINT
Method: U2OS cells stably expressing the human GHSR1a^WT and β-arr2^GFP were seeded onto 35 mm MatTek (Ashland, MA, USA) glass coverslip dishes in opti-MEM supplemented with 2% FBS and antibiotic-antimycotic and grown overnight in a humified incubator (5% CO2, 37° C.). The next morning, media was aspirated and replaced with fresh, serum-free opti-MEM (supplemented with antibiotic-antimycotic). […] Next, treatment was terminated by aspiration of media, a PBS wash, and fixation with 4% paraformaldehyde (20 minutes, room temperature (RT)). Fixed cells were either stored at 4° C. or immediately imaged for β-arr2^GFP translocation with a Zeiss LSM 510 meta confocal microscopy.

hGHSR1a^WT [2] = target: T2, hGHSR1a^WT; assay: SRF-RE transcriptional activity; format: cell-based; set-up: expressed in transfected cells; HEK293/S Gαq/11 KO and parental WT (iCa2+)
Method: The next morning, media was removed and cells were serum starved with 90 μL of opti-MEM (containing no serum) for 2 hours at 37° C. Cells were then stimulated with 10× test compounds (diluted in serum-free opti-MEM) for 5 hours at 37° C. in a humidified incubator. Cells were then lysed in 20 μL of 1× passive lysis buffer (Promega) for 10 minutes on a shaker (RT). To measure luminescence, 40 μL of luciferin (in HBSS supplemented with 20 mM HEPES) was injected into in each well and immediately read by a Mithras 940 plate reader for 10 seconds.

human GHSR1a^WT (Gαq) = human GHSR1a^WT (Gαq) (Homo sapiens, UniProt Q92847); assay: NanoBiT Gαq dissociation/activation; format: cell-based; set-up: HEK293/T (transient); HEK293S Gαq knockout (transient, NanoBiT Gαq)
Chain of human GHSR1a^WT (Gαq) (Q92847 whole entry): as above

[3] = target: T3, hGHSR1a^WT-LgBiT / SmBiT-β-arr2 (Homo sapiens, UniProt Q92847); assay: NanoBiT β-arr2 recruitment; format: cell-based
T3 construct: expressed in transfected cells; host or cells: HEK293/T, transient
T3 sequence (Q92847 whole entry): as above
T3 sequence (P32121 whole entry partner): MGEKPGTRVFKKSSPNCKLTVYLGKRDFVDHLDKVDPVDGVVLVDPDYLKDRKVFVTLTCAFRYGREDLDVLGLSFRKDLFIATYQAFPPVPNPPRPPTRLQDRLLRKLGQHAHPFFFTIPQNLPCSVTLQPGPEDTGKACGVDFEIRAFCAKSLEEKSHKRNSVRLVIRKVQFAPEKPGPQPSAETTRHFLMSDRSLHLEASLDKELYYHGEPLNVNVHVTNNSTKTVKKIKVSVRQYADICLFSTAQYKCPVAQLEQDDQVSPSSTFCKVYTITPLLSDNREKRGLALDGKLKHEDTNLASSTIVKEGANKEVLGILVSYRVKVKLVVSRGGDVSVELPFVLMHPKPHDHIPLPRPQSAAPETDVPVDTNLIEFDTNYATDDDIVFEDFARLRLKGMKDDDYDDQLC
Method: β-arr2 recruitment: In agonist and antagonist assays of NanoBiT-based β-arr2 recruitment, hGHSR1a^WT-Lg^BiT and ^SmBiT-β^WT were transiently co-transfected at a 1:1 ratio (250 μg each) into monolayers of HEK293/T cells on 6-well plates along with 2 μg of pcDNA3.1. For assays employing the Ala204Glu variant, hGHSR1a^A204E-Lg^BiT was transfected at 2×hGHSR1a^WT-Lg^BiT, as performed for iCa^2+ assays with hGHSR1a^A204E described above. For GHSR1a-β-arr2 saturation assays, a fixed amount of hGHSR1a^WT-Lg^BiT cDNA (250 μg) was transfected with 0, 62.5 (1:0.25), 125 (1:0.5), 250 (1:1), 500 (1:2), or 1000 (1:4) μg of ^SmBiTβ-arr^WT. The morning after transfection, media was exchanged and after 4-6 hours, cells were then plated on white 96-well, clear-bottomed assay plates at a density of 45,000 cells/well in opti-MEM supplemented with 2% FBS and antibiotic/antimycotic. The following morning, opti-MEM was removed and cells were incubated with 70-80 μL HBSS supplemented with 20 mM HEPES (pH 7.4) for 4 hours. Cells were then treated with 10 μL of coelenterazine H (5 μM final) for 15-20 minutes at room temperature. Cells were then stimulated with 10 μL of test compounds and 2 minutes later, luminescence was measured over 5 minutes, which encompassed the peak β-arr2 recruitment signal.

[4] = Pharmacokinetic analysis in C57BL/6 mice
Method: Pharmacokinetic Analysis. Male C57BL/6 mice were used for pharmacokinetic studies and were purchased from Charles River Laboratories. DAT KO mice were backcrossed for >10 generations onto a C57BL/6J (Jackson Laboratory, Bar Harbor, ME) genetic background. Mice were bred and maintained on a standard 12:12 hour light:dark cycle, socially housed, and supplied with standard laboratory chow and water ad libitum, except during testing. […] Plasma, brain and liver samples were collected over 24 hours. […] The mean concentration from 3 animals at each time-point was used in the pharmacokinetic (PK) analysis. PK parameters were calculated with Phoenix WinNonlin Software (Ver. 8.0, Certara).

hGHSR1a^A204E = hGHSR1a^A204E (Homo sapiens, UniProt Q92847, A204E); assay: cell-based; conditions: read-out: Gαq dissociation maximal efficacy decrease at GHSR1a^A204E
Chain of hGHSR1a^A204E (Q92847 whole entry A204E): as the sequence (Q92847 whole entry) above, with A204E counted along it
Method: BRET-based Gαq Dissociation & β-arr2 Recruitment Assays. TRUPATH Gα dissociation: Gαq/i1/i2/OA/12/13/sS^RLuc8 and Gγ8^GFP2 or Gγ9^GFP2 were transiently co-transfected with human 3×HA-GHSR1a^WT and untagged Gβ3 at a 1:1:1:1 ratio (100 μg each) into monolayers of HEK293/T cells along with 1.6 μg pcDNA3.1. The next morning, media (DMEM supplemented with 10% FBS and antibiotic/antimycotic) was exchanged and after 4-6 hours, cells were plated on white 96-well, clear-bottomed assay plates at a density of 40,000-50,000 cells/well in opti-MEM supplemented with 2% FBS and antibiotic/antimycotic. The next morning, opti-MEM was removed and cells were incubated with 80 μL HBSS supplemented with 20 mM HEPES (pH 7.4) for 4 hours. Cells were then treated with 10 μL of the luminescent substrate, coelenterazine 400a (5 μM final), for 5 minutes at room temperature prior to the addition of 10 μL of test compound. Five minutes after ligand application, luminescence was measured by a Mithras 940 plate reader over 30 minutes and the maximal response was utilized for generating all C/R curves.

GHSR1a = GHSR1a (Homo sapiens, UniProt Q92847); assay: Bias factor, intrinsic relative activities (RAi) model, Gαq vs β-arr2; set-up: expressed in transfected cells; host or cells: HEK293/T and HEK293/N (the source assays)
Chain of GHSR1a (Q92847 whole entry): as the sequence (Q92847 whole entry) above
From the text: To quantitatively assess N8279 bias between the Gαq and β-arr2 (FIG. 2A) pathways, the intrinsic relative activities (RAi) model was used. […] Ultimately, these analyses together supported that N8279 was a G protein-biased agonist of both proximal and downstream GHSR1a-Gαq signaling.

GHSR1a^P200A = target: T4, GHSR1a^P200A (Homo sapiens, UniProt Q92847, P200A); assay: Gαq dissociation and iCa2+ at P200A mutant; format: cell-based
T4 construct: expressed in transfected cells; host or cells: HEK293/T
T4 sequence (Q92847 whole entry P200A): as the sequence (Q92847 whole entry) above, with P200A counted along it
Method: For experiments with WT and Gt KO HEK293/S cells, […] of hGHSR1a^WT, 10 μg of miAEQ, and 2.5 μg of pcDNA3.1 was transiently transfected into 10 cm dishes and incubated overnight. […] Twenty-four hours later, experiments proceeded in accordance with the procedures described above. To control for any possible kinetic differences in genetically modified cell lines or GHSR1a variants, the average ligand-induced response over 10 seconds was calculated, then normalized by dividing the L-miAeq by the L-miAeq plus the Lysis-miAeq and normalized to the appropriate control/reference condition.

[5] = 5 minute pretreatment, ghrelin 40 nM

## COc1ccc(C(=O)c2c(C(=O)NCCCN(C)C)oc3ccc(Cl)cc3c2=O)cc1OC [Example N8279, 6-Chloro-3-(3,4-dimethoxybenzoyl)-N-(3-(dimethylamino)propyl)-4-oxo-4H-chromene-2-carboxamide]
GPCRome (320 receptors)
  activation above baseline at any other GPCR: ≤ 3 fold
mGHSR A199P
  signaling at humanized mGHSR in words: rescues
hGHSR1a^WT [1]
  β-arr2^GFP translocation in words: minimal response
hGHSR1a^WT [2]
  SRF-RE potency reduction relative to L585: ~10 fold
  SRF-RE potency reduction relative to ghrelin: ~15 fold
  SRF-RE transcription efficacy in words: full agonist
Human GHSR1a^WT (Gαq)
  Gαq activation Emax (NanoBiT): 118.3±9.8
[3]
  NanoBiT β-arr2 recruitment, fold less potent than L585: ~43 fold
  NanoBiT β-arr2 recruitment, fold less potent than ghrelin: ~20 fold
[3]; [5]
  inhibition of EC80 ghrelin-induced β-arr2 recruitment in words: significantly, but incompletely
  inhibition of EC80 ghrelin-induced β-arr2 recruitment, fold less potent than JMV2959: 1.7 fold
  inhibition of EC80 ghrelin-induced β-arr2 recruitment, fold less potent than YIL781: 2.9 fold
[3]; saturation, N8279 100-200 nM vs ghrelin 100 nM
  relative affinity (BiTd) of β-arr2 for GHSR1a, fold weaker than in ghrelin-treated cells: 22.5 fold
[4]; IP
  brain:plasma ratio: 0.6-0.9
[4]; IP 5 mg/kg, brain
  AUCextrap: 7.1%
[4]; IP 5 mg/kg, brain/plasma
  AUC ratio (tissue/plasma): 0.6
[4]; IP 5 mg/kg, liver
  AUCextrap: 0.1%
[4]; IP 5 mg/kg, liver/plasma
  AUC ratio (tissue/plasma): 49
[4]; IP 5 mg/kg, plasma
  AUCextrap: 0.6%
[4]; IV 1 mg/kg, brain
  AUCextrap: 10%
[4]; IV 1 mg/kg, brain/plasma
  AUC ratio (tissue/plasma): 0.8
[4]; IV 1 mg/kg, liver
  AUCextrap: 0.2%
[4]; IV 1 mg/kg, liver/plasma
  AUC ratio (tissue/plasma): 40
[4]; IV 1 mg/kg, plasma
  AUCextrap: 2.4%
[4]; PO 5 mg/kg, brain
  AUCextrap: 24%
[4]; PO 5 mg/kg, brain/plasma
  AUC ratio (tissue/plasma): 0.9
[4]; PO 5 mg/kg, liver
  AUCextrap: 0.1%
[4]; PO 5 mg/kg, liver/plasma
  AUC ratio (tissue/plasma): 77
[4]; PO 5 mg/kg, plasma
  AUCextrap: 11%
[4]; brain, IP and PO 5 mg/kg
  brain half-life (t1/2) after IP and PO administration: 6.6 to 11 h
[4]; male, C57BL/6, mouse, in vivo, ip, 5 mg/kg
  bioavailability: 27%
[4]; male, C57BL/6, mouse, liver, iv, 1 mg/kg
  AUC(0-t): 57100 ng·h/mL
[4]; read-out: peak concentration (Cmax) in brain, IP 5 mg/kg, brain
  Cmax: 259 nM
hGHSR1a^A204E
  Emax: ~45%
GHSR1a; reference L585
  downstream bias: ~14 fold
  downstream bias factor (β): 1.15
  proximal bias: ~28 fold
  proximal bias factor (β): 1.45
GHSR1a; reference ghrelin
  assay-standardized proximal bias factor (β), BRET-Gαq/BRET-β-arr2: 1.16±0.11 and 1.16
  assay-standardized proximal bias factor (β), NanoBiT-Gαq/NanoBiT-β-arr2: 1.36±0.33 and 1.36
  assay-standardized proximal bias, BRET-Gαq/BRET-β-arr2: ~14 fold
  assay-standardized proximal bias, NanoBiT-Gαq/NanoBiT-β-arr2: ~23 fold
  downstream bias factor (β), iCa2+ vs NanoBiT β-arr2: 2.63
  downstream bias, iCa2+ vs NanoBiT β-arr2: ~427 fold
  proximal bias factor (β), Gαq dissociation vs NanoBiT β-arr2: 0.59
  proximal bias, Gαq dissociation vs NanoBiT β-arr2: ~4 fold
GHSR1a^P200A
  potency and Emax at GHSR1a^P200A in words: reduced dramatically
